Patent publication US20120238488A1, “COMPOUNDS AND METHODS FOR TREATING NEOPLASIA” (priority 2009, published 2012)

Tests used:
[1] = system: 22 different cell lines, nine tumor panels (lung, melanoma, ovary, prostate, CNS, breast, pancreas colon and renal); assay: SRB assay, all tumor cell line panels (summary statements); assay type: cell-based, human; conditions: lung, breast, CNS, colon, prostate, ovary, pancreas, kidney and melanoma lines, including a multidrug resistant cell line
Method: (§1) SRB assays were performed according to standard National Cancer Institute Guidelines. Briefly, human tumor cells from different cancer panels were seeded into 96 well plates in 100 μL (plating densities ranging from 5-40,000 cells/well depending on the doubling time of individual cell lines) in serum-containing media for twenty-four hours prior to the addition of the compounds to be assayed. After 24 hours, one plate of each cell line was fixed in situ with trichloroacetic acid (TCA). The fixed slides were used to determine the cell population for each cell line at the time of drug addition (Tz). Each compound to be tested was solubilized in DMSO and the desired concentration was then added to the medium and diluted serially 1:10 to provide a total of five or ten drug concentrations plus control (in a final volume of 200 μL). The starting dose before any dilution was 100 uM for all compounds.
(§2) Following drug addition, each culture was incubated for forty-eight hours. The assay was terminated with the addition of cold TCA. The supernatant was discarded, and the plates were washed with tap water and air dried. Sulforhodamine B (SRB) solution was then added to each well. After staining, the bound stain was solubilized and the absorbance was read on an automated plate reader at a wavelength of 515 nm.
(§3) Using the absorbance measurements [time zero, (Tz), control growth, (C), and test growth in the presence of drug at the ten concentration levels (Ti)], the percentage growth was calculated at each of the drug concentrations levels. Percentage growth inhibition was calculated as:
Three dose response parameters were calculated for each experimental agent. […] The drug concentration resulting in total growth inhibition (TGI) was calculated from Ti=Tz. The LC50 (concentration of drug resulting in a 50% reduction in the measured protein at the end of the drug treatment as compared to that at the beginning) indicating a net loss of cells following treatment was calculated from [(Ti−Tz)/Tz]×100=−50.
Each of these parameters in Table 4 was calculated in a sulforhodamine B (SRB) assay, which provides a colorimetric measure of a compound's anti-cancer activity. SRB assays were performed with compounds of the invention in 22 different cell lines (shaded in light gray in Table 4), which represent nine different tumor panels (lung, melanoma, ovary, prostate, CNS, breast, pancreas colon and renal). […] Paclitaxel was added as a non-Na^+K^+-ATPase inhibitor control.

[2] = system: SF268 (CNS); assay: SRB assay, SF268; assay type: cell-based; conditions: Homo sapiens
Method: as §1, §2, §3
(§4) [(Ti−Tz)/(C−Tz)]×100 for concentrations for which Ti>/=Tz
(§5) [(Ti−Tz)/Tz]×100 for concentrations for which Ti<Tz.
(§6) Three dose response parameters were calculated for each experimental agent. Growth inhibition of 50% (GI50) was calculated from [(Ti−Tz)/(C−Tz)]×100=50, which was the drug concentration resulting in a 50% reduction in the net protein increase (as measured by SRB staining) in control cells during the drug. The drug concentration resulting in total growth inhibition (TGI) was calculated from Ti=Tz. The LC50 (concentration of drug resulting in a 50% reduction in the measured protein at the end of the drug treatment as compared to that at the beginning) indicating a net loss of cells following treatment was calculated from [(Ti−Tz)/Tz]×100=−50.
(§7) Values were calculated for each of these three parameters when the level of activity was reached; however, if the effect was not reached or was exceeded, the value for that parameter was expressed as greater or less than the maximum or minimum concentration tested.
(§8) Table 4 summarizes results characterizing the effects of compound Nos. 120, 12, 61, 1, and 56 on GI50, which measures the cell growth inhibitory power of the compound, TGI, which measures cytostatic effect (TGI) and LC50, which signifies cytotoxic effect. Each of these parameters in Table 4 was calculated in a sulforhodamine B (SRB) assay, which provides a colorimetric measure of a compound's anti-cancer activity. SRB assays were performed with compounds of the invention in 22 different cell lines (shaded in light gray in Table 4), which represent nine different tumor panels (lung, melanoma, ovary, prostate, CNS, breast, pancreas colon and renal). Ouabain and digoxin were used as controls. Paclitaxel was added as a non-Na^+K^+-ATPase inhibitor control.

[3] = system: H160 (Lung); assay: SRB assay, H160; assay type: cell-based, human; conditions: 48 h
Method: as §1, §2, §3, §4, §5, §6, §7, §8

[4] = system: HCT116 (Colon); assay: SRB assay, HCT116; assay type: cell-based; conditions: Homo sapiens
Method: as §1, §2, §3, §4, §5, §6, §7, §8

[5] = system: PCJ (Prostate); assay: SRB assay, PCJ; assay type: cell-based; conditions: Homo sapiens, 48 h
Method: as §1, §2, §3, §4, §5, §6, §7, §8

[6] = system: MCF7 (Breast); assay: SRB assay, MCF7; assay type: cell-based, human
Method: as §1, §2, §3, §4, §5, §6, §7, §8

[7] = system: membrane androgen receptor; assay: Membrane androgen receptor competition assay, DU145 cells; assay type: binding; conditions: 40 μM compound 30 minutes before 40 μM testosterone-HSA-FITC, FIGS. 3B, 3C
Source text: To assess whether compounds of the invention were capable of binding directly to the membrane androgen receptor, a fluorescent-based assay was used to measure the ability of a given compound to preclude binding of a fluorescent mAR ligand (testosterone-HSA-FITC conjugates) to its receptor in LNCaP and DU145 cells (see Kampa, M et al, 2002, Faseb J 16:1429-1431, and PCT/U52007/007913).
The detection of membrane androgen receptors using fluorescent testosterone-serum albumin conjugates was performed as described by Kampa, M et al, 2002, Faseb J 16:1429-1431, with minor modifications. Briefly, LNCaP or DU145 prostate cancer cells were cultured on 0.1% gelatin-coated glass coverslips in RPMI 1640 medium supplemented with 2 mM L-Glutamine, 10% Fetal Bovine Serum and 1% Penicillin/Streptomycin for at least 48 hours until reaching 70% confluency. After a 24 hour serum starvation period, cells were incubated with 40 μM testosterone-HSA-FITC for 1 hour at room temperature. The cells were then washed three times with phosphate buffered saline (PBS) and fixed with 3.7% formaldehyde in PBS for 5 minutes at room temperature. Human serum albumin-FITC was used as a control for background staining. […] Coverslips were mounted on slides by using the Slow Fade/Antifade Reagent (Molecular Probes) and studied under a LEICA DMLB microscope, equipped with the appropriate fluorescence filters and a Leica DC 300F camera. Specimens were analyzed using the Leica FW4000 computer program.
To determine the capacity of a given compound to preclude binding of fluorescent testosterone-HSA conjugates (TAC) to the membrane androgen receptor, starved LNCaP or DU145 cells on coverslips prepared as described above were pre-treated with 40 μM of the indicated compound for 30 minutes prior to the addition of testosterone-HSA-FITC. […] Specimens were prepared and analyzed as described above. Compounds binding to the membrane androgen receptor preclude binding of fluorescent testosterone-HSA conjugates to their target and abolish membrane-specific fluorescence.

C[C@]12CCC(=NOCCn3cc(CN)nn3)CC1CCC1C2CC[C@]2(C)C(=O)CCC12 (stereo partly drawn) [Compound 31, (10S,13S)-3-(2-(4-(aminomethyl)-1H-1,2,3-triazol-1-yl)ethoxyimino)-10,13-dimethyltetradecahydro-1H-cyclopenta[a]phenanthren-17(2H)-one]
viability and/or cell proliferation of neoplastic cell lines [1]: reduced the viability and/or cell proliferation

C[C@@H]1O[C@@H](O[C@H]2C[C@@H](O)[C@]3(CO)[C@H]4[C@H](O)C[C@]5(C)[C@@H](C6=CC(=O)OC6)CC[C@]5(O)[C@@H]4CC[C@]3(O)C2)[C@H](O)[C@H](O)[C@H]1O [Ouabain, reference compound]
CC50 ([2]; SF-268, 48 h, read-out: LC50): 300 nM | GI50 ([2]; SF-268, SF268, SRB, 48 h, read-out: GI50): < 80 nM | IC (TGI) ([2]; SF-268, SF268, SRB, 48 h, read-out: TGI): 100 nM | TGI ([3]; H160, SRB): 100 nM | CC50 ([3]; Homo sapiens, read-out: LC50): 300 nM | GI50 ([3]; Homo sapiens, H160, SRB): < 80 nM | CC50 ([4]; HCT-116, 48 h, read-out: LC50): > 50000 nM | GI50 ([4]; HCT-116, HCT116, SRB, 48 h): < 80 nM | IC (TGI) ([4]; HCT-116, HCT116, SRB, 48 h): 4500 nM | CC50 ([5]; read-out: LC50): 300 nM | GI50 ([5]; PCJ, SRB): < 80 nM | IC (TGI) ([5]; PCJ, SRB): 100 nM | CC50 ([6]; Homo sapiens, MCF7, 48 h, read-out: LC50): 300 nM | GI50 ([6]; Homo sapiens, MCF7, SRB, 48 h): < 80 nM | TGI ([6]; MCF7, SRB, 48 h): 200 nM

C[C@]12CC[C@H](O)C[C@H]1CC[C@@H]1[C@@H]2CC[C@]2(C)[C@@](O)(c3ccoc3)CC[C@]12O [rostafuroxin, reference compound]
membrane fluorescence of TAC-FITC after pre-treatment (binding to mAR precluded) [7]: failed to block binding of TAC-FITC to mAR
